Consider one molecule from patent publication US20130303539A1, “COMPOUNDS WITH TRPV4 ACTIVITY, COMPOSITIONS AND ASSOCIATED METHODS THEREOF” (priority 2012, published 2013).

The target of assay [1] is T1, TRPV4 (Mus musculus, UniProt Q9EPK8). The experiment in a line: AGB cation influx into retinal cells (anti-AGB antibody). The format is cell-based. Also on record: these two cell types express TRPV4 channels in the mouse retina; from tissue; host or cells: mouse retina. As to conditions: mouse retina. On the procedure: FIG. 16 illustrates the effect of the TRPV4 agonist GSK on cation influx into mouse retinal cells of the mouse retina. The influx was determined using the anti-AGB antibody, as described by Marc RE (J Comp Neurol 407(1): 47-64, 1999). AGB is a membrane permeant cation that can flow through most known cation channels. Using an anti-AGB antibody, it can be determined where the cation flux occurs and, therefore, which cells are activated.

For assay [2], the system named is MB mouse model of glaucoma. The experiment in a line: IOP in microbead (MB) mouse model of glaucoma, intraperitoneal dosing. It counts as in vivo. The protocol:
FIG. 2 confirms that the mouse model for glaucoma causes RGC degeneration. Specifically, microbeads (MBs) were injected into the anterior chamber of a mouse eye. The MBs increase intraocular IOP above 15 mm Hg by blocking outflow of the aqueous humor within the anterior chamber of the eye. MBs were reinjected as needed to maintain a high IOP, typically one injection every two weeks. Contralateral eyes were injected intraocularly with the vehicle PBS (phosphate buffered saline) as controls. […] IOP levels were measured at least twice weekly before and after intraocular injections. After injections, mice recovered for 48 hours before IOP measurements resumed. […] Retinas were then removed and processed for immunohistochemistry (IHC). […] After rinsing with PBS, PBS containing the secondary antibody conjugated to fluorophores (Alexa 488 or Alexa 594; […] Retinas were rinsed and flat-mounted on microscope slides. Mounting medium was added and retinal wholemounts were coverslipped. The density of RGCs was imaged with a confocal microscope (Zeiss LSM 510) and quantified by counting NeuN-, CFP- and/or Tuj-1—labeled somata in the RGC layer of the retinal wholemount preparation. Injection of microbeads induces RGC degeneration after 8 weeks but not after 4 weeks. […] Mice were sedated with IP injection of Avertin with final amount calculated by weight (e.g., 0.5 ml for 21-24 g animals). […]

Assay [3] concerns MB model of glaucoma. The experiment in a line: IOP time course after a single eye drop in the MB model of glaucoma. The format is in vivo, mouse. The note with it: single dose eye drop. The protocol: Specifically, microbeads (MBs) were injected into the anterior chamber of a mouse eye as described in Example 2 with PBS-injected eyes used as controls. Compound 1 (10 mg/kg body weight) (or PBS vehicle) was injected intraperitoneally (IP). […] IOP was measured in mice between 10:00 AM and 1:00 PM with the TonoLab rebound tonometer (Colonial Medical Supply, Franconia, NH/Tyolat, Helsinki, Finland). Mice were sedated with IP injection of Avertin with final amount calculated by weight (e.g., 0.5 ml for 21-24 g animals). Animals were placed on a jack stand platform and the tonolab was clamped on a ring stand and centered onto the mid-cornea. During measurements animal were neither restrained nor touched. Each eye was measured twenty consecutive times, the highest and lowest values were discarded and the values were averaged.
FIG. 9 illustrates the short-term effects of a single dose of Compound 1 (eye drop) in the MB model of glaucoma. IOP was measured as described in Example 3 at the indicated time points after receiving a drop of Compound 1. Compound 1 reduced IOP beginning at 1 hour after dosing and continued through 6 hours after dosing.
FIG. 10 illustrates a time course of Compounds 1, 2, 5 and Compound 2-HCl as well as a positive control compound, timolol, with regard to inhibition of IOP. The experiment was conducted as described in Example 9. Each of the TRPV4 antagonists reduced IOP with a similar time course. Specifically, Compounds 1, 2, 5 and Compound 2-HCl reduced IOP for at least 6 hours after dosing.
FIG. 11 illustrates a time course of Compound 2-HCl activity. The experiment was conducted as described in Example 9. […] 2
FIG. 12 illustrates a comparison of the time course of Compound 2-HCl and Compound 5. The experiment was conducted as described in Example 9.

In assay [4] the test system is retinal ganglion cells. The experiment in a line: TUNEL assay of apoptotic cell death in retina. The format is cell-based. As to conditions: Compound 1 1 uM, RuR 10 μM. The protocol:
Terminal deoxynucleotidyl transferase-mediated dUTP-biotin nick end labeling (TUNEL) is a common method for detecting fragmentation that results from apoptotic signaling cascades. Retinas were embedded, cryosectioned, and processed for the TUNEL assay following the protocol by Gavrieli et al. (1992). After 30 min. rehydration in 70% ethanol, 2×5 min. rinses in PBS and 1% Triton-X in 1% citrate buffer (pH 7.3), the slides were subjected to a final rinse in PBS. Slides were then incubated for 30 min. in the reaction buffer (30 mM Trizma-HCl, 140 mM Na^+ cacodylate, 1.0 mM CaCl2, 0.2% Triton X-100, pH 7.2). Positive controls were treated with DNAse I (Roche Diagnostics; Branford, Conn.; 10 U/ml) in the reaction buffer. Next, slides were treated for 1 hour with 0.03 units/pi terminal transferase and 4 μM biotin-16-dUTP (Roche Diagnostics). The reaction was terminated in 30 mM Na+ citrate, 300 mM NaCl and 0.2% Triton X-100 in PBS (5 min.) and rinsed in PBS (2×5 min), exposed to 1% bovine serum albumin in PBS for 20 min and rinsed. Apoptotic cells were visualized with a confocal microscope (Zeiss LSM510) and categorized by size. […] This was blocked by RuR and by the TRPV4 antagonist Compound 1.

Assay [5] has as its system Müller cells. The experiment in a line: Arachidonic acid-induced [Ca2+]i in Müller cells. The format is cell-based. As to conditions: 1 μM, against 10 μM arachidonic acid. On the procedure:
This response is blocked by Compound 1 (1 μM).

Assay [6] deals with T1, TRPV4. Nature of the assay: TRPV4 agonist GSK-evoked [Ca++]i in retinal Müller glial cells. The format is cell-based. The arrangement: endogenous in cells; host or cells: retinal Müller glial cells.

T1 sequence (Q9EPK8 whole entry): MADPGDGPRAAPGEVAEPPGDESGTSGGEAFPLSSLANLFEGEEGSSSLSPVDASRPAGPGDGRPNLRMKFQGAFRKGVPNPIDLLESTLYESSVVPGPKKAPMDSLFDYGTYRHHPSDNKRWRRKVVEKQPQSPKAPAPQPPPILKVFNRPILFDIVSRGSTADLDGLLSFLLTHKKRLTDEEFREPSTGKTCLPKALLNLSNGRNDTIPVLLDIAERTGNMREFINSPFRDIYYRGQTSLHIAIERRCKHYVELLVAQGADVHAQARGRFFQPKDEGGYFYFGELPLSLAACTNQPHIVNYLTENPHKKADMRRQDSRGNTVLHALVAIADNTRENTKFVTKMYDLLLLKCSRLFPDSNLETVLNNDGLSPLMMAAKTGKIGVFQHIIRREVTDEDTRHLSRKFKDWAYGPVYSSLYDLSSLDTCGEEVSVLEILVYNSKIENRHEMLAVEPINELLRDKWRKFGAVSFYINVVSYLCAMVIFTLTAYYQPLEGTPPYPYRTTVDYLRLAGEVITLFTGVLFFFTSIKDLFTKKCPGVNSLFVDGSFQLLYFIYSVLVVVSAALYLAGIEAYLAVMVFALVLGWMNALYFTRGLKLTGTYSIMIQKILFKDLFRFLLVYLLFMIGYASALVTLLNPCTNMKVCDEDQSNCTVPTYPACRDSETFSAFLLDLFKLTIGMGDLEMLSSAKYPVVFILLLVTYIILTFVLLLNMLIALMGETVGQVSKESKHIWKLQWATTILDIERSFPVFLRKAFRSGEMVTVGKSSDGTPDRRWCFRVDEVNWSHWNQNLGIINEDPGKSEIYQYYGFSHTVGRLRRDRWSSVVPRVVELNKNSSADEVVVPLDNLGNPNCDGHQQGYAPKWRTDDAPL

With `Cc1c(C(=O)Nc2cccc(C(F)(F)F)c2)cc(-c2ccccc2)n1CCCN1CCOCC1` [Compound 1, N-(3-(trifluoromethyl)phenyl)-2-methyl-1-(3-morpholinopropyl)-5-phenyl-1H-pyrrole-3-carboxamide], the “antagonism of the effect of GSK on AGB cation influx” value in assay [1] is given as “strongly antagonized”. Further, the IOP result in assay [2] (10 mg/kg body weight intraperitoneally, MB-injected eyes vs PBS-injected eyes) is given as “blocked the increase in IOP to the level observed in control mice”. In addition, the “average IOP, cumulative effectiveness” value in assay [2] (daily IP injections, cumulative data from 3 independent experiments) is reported as “blocks MB-induced increases in IOP”. Further, the “onset of IOP reduction after dosing” value in assay [3] came out at 1 h. In assay [4] (190 mOsm saline), the “apoptotic cell death (TUNEL) induced by hypotonic swelling” value is “block apoptotic cell death”. In assay [4] (GSK 100 nM), the “apoptotic cell death (TUNEL) induced by the TRPV4 agonist GSK” value is on record as “block apoptotic cell death”. Also, the “block of arachidonic acid-induced [Ca2+]i increase” value in assay [5] was “blocked”. Besides, in assay [6], the “block of GSK-evoked [Ca++]i increase” value is listed as “this effect is blocked”, the “reversibility of the effect on glial calcium levels” value is “reversible” and the “washout by superfusion with control saline” value turned out to be 10 min.
